Test results published in patent US11786534B2 (TAIHO PHARMACEUTICAL CO., LTD., priority 2019, dated 2023).
pIC50: −log10 of the molar value. Where two headings read alike, the source gives them in different places.

Tests used:
[1] = target: T1, human EGFR (L858R/T790M/C797S) (Homo sapiens, UniProt P00533, C797S/L858R/T790M); assay: Inhibitory activity against EGFR (L858R/T790M/C797S) kinase; format: biochemical
T1 construct: made in house; host or cells: Sf9 insect cells, baculovirus
Outline: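 GST-tagged cytoplasmic domain of human EGFR L858R/T790M/C797S, expressed in Sf9 insect cells via baculovirus and glutathione-purified. Kinase reaction run at 0.5 μM ATP final; IC50 (nM) determined per compound.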

[2] = target: Ba/F3-EGFR (d746-750/T790M/C797S) (Homo sapiens, UniProt P00533, DEL746-750/T790M/C797S, cells depend on it); assay: Growth inhibition of cell line expressing EGFR (d746-750/T790M/C797S); format: cell-based, mouse; settings: read-out: BaF3_EGFR (d746-750/T790M/C797S) IC50 value
Ba/F3-EGFR (d746-750/T790M/C797S), sequence (P00533 with tags, fused parts or gaps DEL746-750/T790M/C797S): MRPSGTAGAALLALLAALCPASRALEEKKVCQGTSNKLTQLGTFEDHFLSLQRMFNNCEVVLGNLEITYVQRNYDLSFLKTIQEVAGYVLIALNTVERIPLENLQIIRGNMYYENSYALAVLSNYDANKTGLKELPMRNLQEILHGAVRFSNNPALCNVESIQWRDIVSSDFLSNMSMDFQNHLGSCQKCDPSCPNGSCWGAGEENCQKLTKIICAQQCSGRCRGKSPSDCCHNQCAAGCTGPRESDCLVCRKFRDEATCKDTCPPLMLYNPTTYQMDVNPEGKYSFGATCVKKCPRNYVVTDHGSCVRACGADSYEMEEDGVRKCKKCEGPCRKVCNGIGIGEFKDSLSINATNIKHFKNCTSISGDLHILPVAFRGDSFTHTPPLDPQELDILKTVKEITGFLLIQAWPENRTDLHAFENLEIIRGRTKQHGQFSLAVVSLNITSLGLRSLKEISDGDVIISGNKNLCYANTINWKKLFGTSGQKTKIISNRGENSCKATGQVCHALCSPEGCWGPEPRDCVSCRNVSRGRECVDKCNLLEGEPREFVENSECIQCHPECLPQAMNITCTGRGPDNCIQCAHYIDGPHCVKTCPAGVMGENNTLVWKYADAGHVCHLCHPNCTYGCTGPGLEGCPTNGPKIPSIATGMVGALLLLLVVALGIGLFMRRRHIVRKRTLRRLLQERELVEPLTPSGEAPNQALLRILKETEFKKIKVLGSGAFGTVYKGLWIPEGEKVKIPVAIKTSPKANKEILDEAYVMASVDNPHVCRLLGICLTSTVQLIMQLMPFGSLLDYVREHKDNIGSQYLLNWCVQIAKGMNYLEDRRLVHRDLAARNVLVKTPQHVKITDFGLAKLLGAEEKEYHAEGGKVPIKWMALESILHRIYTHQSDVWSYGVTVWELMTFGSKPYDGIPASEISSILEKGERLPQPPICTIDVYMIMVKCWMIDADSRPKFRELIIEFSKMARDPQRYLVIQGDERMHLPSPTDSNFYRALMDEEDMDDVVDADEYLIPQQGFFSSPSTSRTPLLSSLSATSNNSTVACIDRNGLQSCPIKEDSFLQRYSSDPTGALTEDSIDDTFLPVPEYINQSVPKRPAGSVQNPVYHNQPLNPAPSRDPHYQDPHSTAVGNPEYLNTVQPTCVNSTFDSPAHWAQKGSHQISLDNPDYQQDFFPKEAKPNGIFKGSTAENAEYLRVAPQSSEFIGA
Text: (§1) Test for inhibitory activity against the growth of cell lines expressing wild-type and mutated EGFRs (in vitro)
(§2) (1) Mouse cell line Ba/F3-EGFR (d746-750/T790M/C797S) transfected with and stably expressing EGFR (d746-750/T790M/C797S), mouse cell Ba/F3-EGFR (L858R/T790M/C797S) transfected with and stably expressing EGFR (L858R/T790M/C797S), and mouse cell line Ba/F3-EGFR (WT) transfected with and stably expressing wild-type EGFR were each suspended in RPMI-1640 cell culture medium (RPMI-1640, 10% FBS, 100 unit/ml penicillin, 0.1 mg/ml streptomycin). In the case of the mouse cell line Ba/F3-EGFR (WT), RPMI-1640 cell culture medium containing EGF at a final concentration of 50 ng/ml was used to suspend this cell line. It should be noted that the mouse cell line Ba/F3-EGFR (d746-750/T790M/C797S) transfected with and stably expressing EGFR (d746-750/T790M/C797S), the mouse cell line Ba/F3-EGFR (L858R/T790M/C797S) transfected with and stably expressing EGFR (L858R/T790M/C797S) and the mouse cell line Ba/F3-EGFR (WT) transfected with and stably expressing wild-type EGFR were prepared by using nucleotide sequences encoding the proteins of SEQ ID NOs: 1 and 2 in accordance with Test Example 1 in WO2018/079310, These cell suspensions were seeded in wells of 96-well flat -bottomed plates. The compounds of the present invention were dissolved in DMSO, and serial dilutions of these test compounds were prepared with DMSO (1000-fold of the final concentration). Each test compound solution in DMSO or DMSO alone was diluted with RPMI-1640 cell culture medium for each cell line, and this dilution was added to wells of the cell culture plate such that the final concentration of DMSO was 0.1%, followed by culture at 37° C. for 3 days in a 5% carbon dioxide gas-containing incubator. Before and after addition of each test compound solution in DMSO, the number of cells was counted using the CellTiter-Glo® system (Promega) on the basis of the protocol recommended by Promega.
(§3) In each cell line, the rate of cell growth inhibition was calculated according to the equation shown below in wells to which each test compound was added at different concentrations. Moreover, the inhibition rate at each concentration was plotted for each test compound, and the concentration of each test compound required to give 50% cell survival rate, i.e., IC50 (nM) was determined by curve fitting software XLfit (IDBS).
(§4) Cell survival rate (%)=T/C×100
(§5) T: emission intensity in a well cultured for 3 days after addition of a test compound solution
(§6) C: emission intensity in a well cultured for 3 days after addition of DMSO
(§7) In accordance with the same procedures as shown in Test Example 2, the compounds of the present invention were tested for their inhibitory activity against the growth of the cell hoes expressing wild-type and mutated EGFRs.

Ba/F3-EGFR (WT) = Ba/F3-EGFR (WT) (Homo sapiens, UniProt P00533); assay: Growth inhibition of cell line expressing wild-type EGFR; format: cell-based, mouse; settings: read-out: BaF3_EGFR (WT) IC50 value
Ba/F3-EGFR (WT), sequence (P00533 whole entry, change not shown): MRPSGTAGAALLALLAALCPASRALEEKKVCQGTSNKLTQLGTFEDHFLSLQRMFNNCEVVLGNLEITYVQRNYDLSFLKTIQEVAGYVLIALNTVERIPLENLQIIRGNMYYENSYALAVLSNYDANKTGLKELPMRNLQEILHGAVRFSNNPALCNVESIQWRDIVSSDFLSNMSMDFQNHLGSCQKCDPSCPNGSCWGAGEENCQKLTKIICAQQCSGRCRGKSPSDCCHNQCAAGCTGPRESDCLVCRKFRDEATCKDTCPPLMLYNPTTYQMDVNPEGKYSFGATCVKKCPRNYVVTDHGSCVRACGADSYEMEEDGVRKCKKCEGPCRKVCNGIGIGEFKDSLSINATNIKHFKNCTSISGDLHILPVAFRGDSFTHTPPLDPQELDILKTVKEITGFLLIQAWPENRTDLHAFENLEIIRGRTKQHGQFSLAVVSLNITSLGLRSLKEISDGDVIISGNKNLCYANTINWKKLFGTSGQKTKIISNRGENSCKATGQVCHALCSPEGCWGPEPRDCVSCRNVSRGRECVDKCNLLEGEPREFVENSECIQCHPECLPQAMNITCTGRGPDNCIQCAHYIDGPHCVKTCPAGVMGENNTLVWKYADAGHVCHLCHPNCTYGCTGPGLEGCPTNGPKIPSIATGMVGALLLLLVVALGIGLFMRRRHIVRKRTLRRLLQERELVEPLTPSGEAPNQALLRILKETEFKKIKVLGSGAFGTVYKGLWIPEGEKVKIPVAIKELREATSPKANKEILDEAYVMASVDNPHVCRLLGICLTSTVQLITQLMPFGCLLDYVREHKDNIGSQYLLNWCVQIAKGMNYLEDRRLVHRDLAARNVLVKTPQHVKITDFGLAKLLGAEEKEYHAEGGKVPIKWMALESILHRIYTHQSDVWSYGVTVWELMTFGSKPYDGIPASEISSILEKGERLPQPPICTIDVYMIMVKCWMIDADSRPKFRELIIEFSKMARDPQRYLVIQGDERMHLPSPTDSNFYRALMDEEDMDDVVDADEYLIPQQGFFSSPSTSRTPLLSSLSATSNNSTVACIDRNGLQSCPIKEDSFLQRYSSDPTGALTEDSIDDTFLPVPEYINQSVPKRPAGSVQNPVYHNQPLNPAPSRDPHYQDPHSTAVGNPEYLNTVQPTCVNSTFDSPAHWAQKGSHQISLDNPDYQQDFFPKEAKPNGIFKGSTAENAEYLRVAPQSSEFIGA
Text: as §1, §2, §3, §4, §5, §6, §7

[3] = Test Example 1, Table 3, ATP 0.5 μM
[4] = Test Example 4, Table 13, same procedures as Test Example 2
[5] = Test Example 2, Table 7, culture 3 days, CellTiter-Glo
[6] = Test Example 2, Table 7, culture 3 days, EGF 50 ng/ml, CellTiter-Glo

T1 sequence (P00533 with tags, fused parts or gaps T790M/C797S/L858R): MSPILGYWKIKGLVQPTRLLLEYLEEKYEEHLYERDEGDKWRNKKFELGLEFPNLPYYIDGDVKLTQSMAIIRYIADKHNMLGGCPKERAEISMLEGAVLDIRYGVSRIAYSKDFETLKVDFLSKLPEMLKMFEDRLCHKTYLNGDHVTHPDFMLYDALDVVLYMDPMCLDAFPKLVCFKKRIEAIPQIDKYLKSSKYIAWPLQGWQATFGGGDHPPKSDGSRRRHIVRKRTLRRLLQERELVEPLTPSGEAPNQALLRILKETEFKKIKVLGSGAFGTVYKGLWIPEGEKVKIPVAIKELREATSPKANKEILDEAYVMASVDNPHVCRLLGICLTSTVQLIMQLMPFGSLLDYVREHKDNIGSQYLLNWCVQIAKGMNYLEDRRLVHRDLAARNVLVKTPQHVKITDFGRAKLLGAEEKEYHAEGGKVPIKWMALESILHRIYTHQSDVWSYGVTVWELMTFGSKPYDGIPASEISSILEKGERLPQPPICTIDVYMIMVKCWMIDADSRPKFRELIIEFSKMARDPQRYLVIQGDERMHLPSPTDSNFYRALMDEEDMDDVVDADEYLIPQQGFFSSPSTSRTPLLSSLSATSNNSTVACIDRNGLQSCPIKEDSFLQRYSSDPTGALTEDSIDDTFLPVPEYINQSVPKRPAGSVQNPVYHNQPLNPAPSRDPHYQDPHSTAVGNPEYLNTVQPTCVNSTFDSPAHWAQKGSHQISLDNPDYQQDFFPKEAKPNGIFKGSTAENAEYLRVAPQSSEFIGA

| Compound | pIC50 [1, 3] | GI50 [2, 4] [nM] | GI50 (Ba/F3-EGFR (WT); [4]) [nM] | GI50 [2, 5] [nM] | GI50 (Ba/F3-EGFR (WT); [6]) [nM] | pIC50 ([1]; Test Example 3, Table 9; same procedures as 2) in Test Example 1) |
| --- | --- | --- | --- | --- | --- | --- |
| C#Cc1c(-c2cnc3ccccc3c2)c2c(N)ncnc2n1C12CCC(NC(=O)c3cnns3)(CC1)C2 [Example 18, N-(4-(4-Amino-6-ethynyl-5-(quinolin-3-yl)-7H-pyrrolo[2,3-d]pyrimidin-7-yl)bicyclo-[2.2.1]heptan-1-yl)-1,2,3-thiadiazole-5-carboxamide] | 9.38 | 124 | 2480 |  |  |  |
| C#Cc1c(-c2cnc3ccccc3c2)c2c(N)ncnc2n1C12CCC(NC(=O)c3ccnn3C3CC3)(CC1)C2 [Example 20, N-(4-(4-Amino-6-ethynyl-5-(quinolin-3-yl)-7H-pyrrolo[2,3-d]pyrimidin-7-yl)bicyclo-[2.2.1]heptan-1-yl)-1-cyclopropyl-1H-pyrazole-5-carboxamide] | 9.36 | 31 | 2650 |  |  |  |
| C#Cc1c(-c2cnc3ccccc3c2)c2c(N)ncnc2n1C12CCC(NC(=O)c3nccn3C)(CC1)C2 [Example 23, N-(4-(4-Amino-6-ethynyl-5-(quinolin-3-yl)-7H-pyrrolo[2,3-d]pyrimidin-7-yl)bicyclo-[2.2.1]heptan-1-yl)-1-methyl-1H-imidazole-2-carboxamide] | 9.38 | 31 | 3190 |  |  |  |
| C#Cc1c(-c2cnc3ccccc3c2)c2c(N)ncnc2n1C12CCC(NC(=O)c3ccnn3C)(CC1)C2 [Example 24, N-(4-(4-Amino-6-ethynyl-5-(quinolin-3-yl)-7H-pyrrolo[2,3-d]pyrimidin-7-yl)bicyclo-[2.2.1]heptan-1-yl)-1-methyl-1H-pyrazole-5-carboxamide] | > 9.52 |  |  | 34 | 3790 |  |
| C#Cc1c(-c2cnc3ccccc3c2)c2c(N)ncnc2n1C12CCC(NC(=O)C(F)F)(CC1)C2 [Example 27, N-(4-(4-Amino-6-ethynyl-5-(quinolin-3-yl)-7H-pyrrolo[2,3-d]pyrimidin-7-yl)bicyclo-[2.2.1]heptan-1-yl)-2,2-difluoroacetamide] | 9.33 | 110 | > 2000 |  |  |  |
| C#Cc1c(-c2cnc3ccccc3c2)c2c(N)ncnc2n1C12CCC(NC(=O)c3cncc(F)c3)(CC1)C2 [Example 35, N-(4-(4-Amino-6-ethynyl-5-(quinolin-3-yl)-7H-pyrrolo[2,3-d]pyrimidin-7-yl)-bicyclo-[2.2.1]heptan-1-yl)-5-fluoronicotinamide] | 9.30 | 44 | 2960 |  |  |  |
| C#Cc1c(-c2cnc3ccccc3c2)c2c(N)ncnc2n1C12CCC(NC(=O)c3noc(C)n3)(CC1)C2 [Example 36, N-(4-(4-Amino-6-ethynyl-5-(quinolin-3-yl)-7H-pyrrolo[2,3-d]pyrimidin-7-yl)-bicyclo-[2.2.1]heptan-1-yl)-5-methyl-1,2,4-oxadiazole-3-carboxamide] | 9.25 | 59 | > 2000 |  |  |  |
| C#Cc1c(-c2cnc3ccccc3c2)c2c(N)ncnc2n1C12CCC(NC(=O)c3cnc(C)cn3)(CC1)C2 [Example 37, N-(4-(4-Amino-6-ethynyl-5-(quinolin-3-yl)-7H-pyrrolo[2,3-d]pyrimidin-7-yl)-bicyclo-[2.2.1]heptan-1-yl)-5-methylpyrazine-2-carboxamide] | 9.28 |  |  | 21 | 2970 |  |
| C#Cc1c(-c2cnc3ccccc3c2)c2c(N)ncnc2n1C12CCC(NC(C)=O)(CC1)C2 [Example 39, N-(4-(4-Amino-6-ethynyl-5-(quinolin-3-yl)-7H-pyrrolo[2,3-d]pyrimidin-7-yl)-bicyclo-[2.2.1]heptan-1-yl)acetamide] | 9.44 | 98 | 2360 |  |  |  |
| C#Cc1c(-c2cnc3ccccc3c2)c2c(N)ncnc2n1C12CCC(NC(=O)c3ccco3)(CC1)C2 [Example 41] | 9.41 | 102 | 3240 |  |  |  |
| C#Cc1c(-c2cnc3ccccc3c2)c2c(N)ncnc2n1C12CCC(NC(=O)c3ccno3)(CC1)C2 [Example 44] | 9.49 | 30 | 2260 |  |  |  |
| C#Cc1c(-c2cnc3ccccc3c2)c2c(N)ncnc2n1C12CCC(NC(=O)c3ncco3)(CC1)C2 [Example 46] | 9.39 |  |  | 19 | 2410 |  |
| C#Cc1c(-c2cnc3ccccc3c2)c2c(N)ncnc2n1C12CCC(NC(=O)c3cnccn3)(CC1)C2 [Example 48] | > 9.52 |  |  | 24 | 2490 |  |
| C#Cc1c(-c2cnc3ccccc3c2)c2c(N)ncnc2n1C12CCC(NC(=O)c3cccnn3)(CC1)C2 [Example 49] | 9.33 |  |  | 19 | 3070 |  |
| C#Cc1c(-c2cnc3ccccc3c2)c2c(N)ncnc2n1C12CCC(NC(=O)c3nccs3)(CC1)C2 [Example 53] | 9.16 | 162 | 3290 |  |  |  |
| C#Cc1c(-c2cnc3ccccc3c2)c2c(N)ncnc2n1C12CCC(NC(=O)[C@@H]3CN(C)CCO3)(CC1)C2 [Example 63, (S)-N-(4-(4-Amino-6-ethynyl-5-(quinolin-3-yl)-7H-pyrrolo[2,3-d]pyrimidin-7-yl) -bicyclo[2.2.1]heptan-1-yl)-4-methylmorpholine-2-carboxamide] |  | 73 | 2990 |  |  | > 9.52 |
